Assay results taken from patent publication US20230076310A1, “COMPOSITION USING NOVEL LACTOBACILLUS PLANTARUM KC3 STRAIN FOR PREVENTION OR TREATMENT OF IMMUNE IMPAIRMENT, RESPIRATORY INFLAMMATORY DISEASE, ALLERGY, AND ASTHMA AND USE THEREOF” (KT&G CORPORATION, priority 2020, published 2023).
Bridge positions count the residues as written; N and C are the ends. Square brackets hold non-standard residues; d marks the D form. Peptide text beside a SMILES is read from it. * marks the point of attachment. Ileψ(thiazoline)Cys = CC[C@H](C)[C@H](N)C1=N[C@H](C(=O)*)CS1; dOrn = NCCC[C@@H](N)C(=O)O

Tested on: Lactobacillus plantarum KC3
Assay: Antibiotics resistance experiment (antibiotic strips on LSM solid medium)
Format: cell-based
Conditions: antibiotic strip on KC3 lawn, 37° C. for 24 hours
Description: In order to confirm antibiotics resistance level of the new lactic acid bacteria from the of the Lactobacillus plantarum KC3 the present disclosure, an experiment was performed as follows by applying the method described in the document ([1] Mathur, S. and R. Singh, Antibiotic resistance in food lactic acid bacteria—A review. Int. J. Food Microbiol 2005 105: 281-295); [2] European Food Safety Authority, Guidance on the assessment of bacterial susceptibility to antimicrobials of human and veterinary importance: EFSA Panel on Additives and Products or Substances used in Animal Feed (FEEDAP). The EFSA Journal 2012 2740:1-10. doi:10.2903/j.efsa.2012.2740).
To measure the antibiotics resistance level of the strain, an MIC test was carried out. Lactic acid bacteria that were inoculated into an MRS medium (DF0881-17-5, Difco) and cultured at 37° C. for 18 hours were spread on an LSM solid medium (90% iso-sensitest broth (CM0473, Oxoid), 10% MRS medium (DF0881-17-5, Difco), and 1.5% agar (214010, Difco)). Strips for each type of antibiotics, such as Amikacin (92018, Liofilchem srl), Gentamycin (92009, Liofilchem srl), Kanamycin (92034, Liofilchem srl), Streptomycin (92112, Liofilchem srl), Penicillin-G (92102, Liofilchem srl), Oxacillin (92015, Liofilchem srl), Ampicillin (920030, Liofilchem srl), Bacitracin (92019, Liofilchem srl), Rifampicin (92001, Liofilchem srl), Polymyxin B (92004, Liofilchem srl), Chloramphenico I (92075, Liofilchem srl), Vancomycin (92057, Liofilchem srl), and the like, were put on the medium, and the bacteria were grown at 37° C. for 24 hours.
In Table 4, R indicates resistance and represents that the size of an inhibition zone is about 0 mm; IS indicates medium resistance and represents that the size of an inhibition zone is in a range of about 1 mm to about 5 mm; and S indicates […] and represents that the size of an inhibition zone is greater than about 5 mm.

| Molecule | Antibiotic resistance (class) | Antibiotic resistance, size of inhibition zone |
| --- | --- | --- |
| NCC[C@H](O)C(=O)N[C@@H]1C[C@H](N)[C@@H](O[C@H]2O[C@H](CN)[C@@H](O)[C@H](O)[C@H]2O)[C@H](O)[C@H]1O[C@H]1O[C@H](CO)[C@@H](O)[C@H](N)[C@H]1O [Amikacin] | IS (IS indicates medium resistance and represents that the size of an inhibition zone is in a range of about 1 mm to about 5 mm) | (1 mm) |
| CC1(C)S[C@@H]2[C@H](NC(=O)[C@H](N)c3ccccc3)C(=O)N2[C@H]1C(=O)O [Ampicillin] | S (S indicates resistance and represents that the size of an inhibition zone is greater than about 5 mm) | (14 mm) |
| CC[C@H](C)[C@H](N)C1=N[C@H](C(=O)N[C@@H](CC(C)C)C(=O)N[C@H](CCC(=O)O)C(=O)N[C@H](C(=O)N[C@H]2CCCCNC(=O)[C@H](CC(N)=O)NC(=O)[C@@H](CC(=O)O)NC(=O)[C@H](Cc3cnc[nH]3)NC(=O)[C@@H](Cc3ccccc3)NC(=O)[C@H]([C@@H](C)CC)NC(=O)[C@@H](CCCN)NC2=O)[C@@H](C)CC)CS1 [Bacitracin] ({Ileψ(thiazoline)Cys}-L[dE]IK[dOrn]I[dF]H[dD]N; lactam 4-C) | S (S indicates resistance and represents that the size of an inhibition zone is greater than about 5 mm) | (7 mm) |
| O=C(N[C@H](CO)[C@H](O)c1ccc([N+](=O)[O-])cc1)C(Cl)Cl [Chloramphenicol] | S (S indicates resistance and represents that the size of an inhibition zone is greater than about 5 mm) | (10 mm) |
| NC[C@H]1O[C@H](O[C@H]2[C@H](O)[C@@H](O[C@H]3O[C@H](CO)[C@@H](O)[C@H](N)[C@H]3O)[C@H](N)C[C@@H]2N)[C@H](O)[C@@H](O)[C@@H]1O [Kanamycin] | R (R indicates resistance and represents that the size of an inhibition zone is about 0 mm) | (0 mm) |
| CCC[C@@H]1C[C@@H](C(=O)N[C@@H]([C@H]2O[C@H](SC)[C@H](O)[C@@H](O)[C@H]2O)[C@@H](C)O)N(C)C1 [Lincomycin] | S (S indicates resistance and represents that the size of an inhibition zone is greater than about 5 mm) | (10 mm) |
| CO[C@@H]1[C@@H](OC(N)=O)[C@@H](O)[C@H](Oc2ccc3c(O)c(NC(=O)c4ccc(O)c(CC=C(C)C)c4)c(=O)oc3c2C)OC1(C)C [Novabiocin] | S (S indicates resistance and represents that the size of an inhibition zone is greater than about 5 mm) | (7 mm) |
| Cc1onc(-c2ccccc2)c1C(=O)N[C@@H]1C(=O)N2[C@@H]1SC(C)(C)[C@@H]2C(=O)O [Oxacillin] | IS (IS indicates medium resistance and represents that the size of an inhibition zone is in a range of about 1 mm to about 5 mm) | (2 mm) |
| CC1(C)S[C@@H]2[C@H](NC(=O)Cc3ccccc3)C(=O)N2[C@H]1C(=O)O [Penicillin-G] | IS (IS indicates medium resistance and represents that the size of an inhibition zone is in a range of about 1 mm to about 5 mm) | (5 mm) |
| CO[C@H]1/C=C/O[C@@]2(C)Oc3c(C)c(O)c4c(O)c(c(/C=N/N5CCN(C)CC5)c(O)c4c3C2=O)NC(=O)/C(C)=C\C=C\[C@H](C)[C@H](O)[C@@H](C)[C@@H](O)[C@@H](C)[C@H](OC(C)=O)[C@@H]1C [Rifampicin] | S (S indicates resistance and represents that the size of an inhibition zone is greater than about 5 mm) | (7 mm) |
| [H]/N=C(/N)N[C@H]1[C@H](O)[C@@H](O)[C@H](O[C@@H]2O[C@@H](C)[C@](O)(C=O)[C@H]2O[C@@H]2O[C@@H](CO)[C@H](O)[C@@H](O)[C@@H]2NC)[C@@H](N/C(N)=N\[H])[C@@H]1O [Streptomycin] | R (R indicates resistance and represents that the size of an inhibition zone is about 0 mm) | (0 mm) |
| CN[C@H](CC(C)C)C(=O)N[C@H]1C(=O)N[C@@H](CC(N)=O)C(=O)N[C@H]2C(=O)N[C@H]3C(=O)N[C@H](C(=O)N[C@H](C(=O)O)c4cc(O)cc(O)c4-c4cc3ccc4O)[C@H](O)c3ccc(c(Cl)c3)Oc3cc2cc(c3O[C@@H]2O[C@H](CO)[C@@H](O)[C@H](O)[C@H]2O[C@H]2C[C@](C)(N)[C@H](O)[C@H](C)O2)Oc2ccc(cc2Cl)[C@H]1O [Vancomycin] | R (R indicates resistance and represents that the size of an inhibition zone is about 0 mm) | (0 mm) |
| Gentamycin | IS (IS indicates medium resistance and represents that the size of an inhibition zone is in a range of about 1 mm to about 5 mm) | (3 mm) |
| Neomycin | IS (IS indicates medium resistance and represents that the size of an inhibition zone is in a range of about 1 mm to about 5 mm) | (3 mm) |
| Polymyxin B | R (R indicates resistance and represents that the size of an inhibition zone is about 0 mm) | (0 mm) |

Tested on: croton oil-induced mouse ear edema
Assay: Croton oil-induced mouse ear edema test
Format: in vivo, ICR mice
Conditions: 10 mg/kg BW oral; about 4 hours after 2.5% croton oil
Description: To confirm anti-inflammatory effect of the probiotic lactic acid bacteria (Lactobacillus plantarum KC3, KC3) on ear edema, an experiment was performed according to the croton oil-induced mouse ear edema method by applying the method described in the document (Dong Wook Kim, Kun Ho Son, Hyeun Wook Chang, KiHwan Bae and Sam Sik Kang, Arch Pharm Res., 2003, 3, pp 232-236).
To evaluate anti-inflammatory activity of the samples of the Example above, a croton oil-induced mouse ear edema test was carried out, and results thereof were obtained by measuring the ear thickness of the samples as shown in Table 8. […]
About 1 hour after administration, 2.5% croton oil (C0421 available from TCI Company, […]) dissolved in acetone was applied evenly to the inside and outside of the right ear of each mice to induce ear edema. […] Then, the degree of edema in the ears of the mice was measured according to variations in speed by measuring the thickness of both ears using a thickness gauge (Digimatic thickness gauge, 547-301, Mitutoyo, Japan). Here, based on the degree of and the inhibition rate (%) was calculated based on the degree of edema of the mice in the negative control group (0.5% sodium carboxymethyl cellulose (CMC), Sigma-Aldrich 419273), inhibition rates (%) were calculated, and results thereof are shown in Table 8 below.

| Molecule | Inhibition rate of ear edema (% of control) |
| --- | --- |
| COc1ccc2c(c1)c(CC(=O)O)c(C)n2C(=O)c1ccc(Cl)cc1 [Indomethacin] | 25.6 ± 2.2 % of control |

Same assay, conditions: 10 mg/kg BW oral; about 4 hours after 2.5% croton oil; edema control 0.806 ± 0.068

| Molecule | Thickness (ear) |
| --- | --- |
| COc1ccc2c(c1)c(CC(=O)O)c(C)n2C(=O)c1ccc(Cl)cc1 [Indomethacin] | 0.684 ± 0.054 |
